The record followed here is ChEMBL document CHEMBL5465560, “Selectivity Literature for EUbOPEN Chemogenomic Library” (2024).

The target of test [1] is T1, Serine/threonine-protein kinase Nek2 (Homo sapiens) (UniProt P51955).
T1 sequence (whole entry): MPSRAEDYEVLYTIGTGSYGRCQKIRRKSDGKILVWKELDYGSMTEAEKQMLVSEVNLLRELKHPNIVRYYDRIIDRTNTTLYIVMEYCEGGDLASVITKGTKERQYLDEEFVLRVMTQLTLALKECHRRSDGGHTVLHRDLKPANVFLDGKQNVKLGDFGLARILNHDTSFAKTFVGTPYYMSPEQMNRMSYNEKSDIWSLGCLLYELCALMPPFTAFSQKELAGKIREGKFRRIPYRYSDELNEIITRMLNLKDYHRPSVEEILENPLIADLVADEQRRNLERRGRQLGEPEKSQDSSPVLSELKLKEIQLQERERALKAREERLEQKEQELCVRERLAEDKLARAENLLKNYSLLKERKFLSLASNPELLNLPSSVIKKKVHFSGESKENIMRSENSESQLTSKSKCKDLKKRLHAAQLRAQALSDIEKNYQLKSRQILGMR
The test can be described thus: Selectivity interaction (ProQinase) EUB0000171b NEK2.

Test [2] addresses T2, Serine/threonine-protein kinase D3 (Homo sapiens) (UniProt O94806).
T2 sequence (whole entry): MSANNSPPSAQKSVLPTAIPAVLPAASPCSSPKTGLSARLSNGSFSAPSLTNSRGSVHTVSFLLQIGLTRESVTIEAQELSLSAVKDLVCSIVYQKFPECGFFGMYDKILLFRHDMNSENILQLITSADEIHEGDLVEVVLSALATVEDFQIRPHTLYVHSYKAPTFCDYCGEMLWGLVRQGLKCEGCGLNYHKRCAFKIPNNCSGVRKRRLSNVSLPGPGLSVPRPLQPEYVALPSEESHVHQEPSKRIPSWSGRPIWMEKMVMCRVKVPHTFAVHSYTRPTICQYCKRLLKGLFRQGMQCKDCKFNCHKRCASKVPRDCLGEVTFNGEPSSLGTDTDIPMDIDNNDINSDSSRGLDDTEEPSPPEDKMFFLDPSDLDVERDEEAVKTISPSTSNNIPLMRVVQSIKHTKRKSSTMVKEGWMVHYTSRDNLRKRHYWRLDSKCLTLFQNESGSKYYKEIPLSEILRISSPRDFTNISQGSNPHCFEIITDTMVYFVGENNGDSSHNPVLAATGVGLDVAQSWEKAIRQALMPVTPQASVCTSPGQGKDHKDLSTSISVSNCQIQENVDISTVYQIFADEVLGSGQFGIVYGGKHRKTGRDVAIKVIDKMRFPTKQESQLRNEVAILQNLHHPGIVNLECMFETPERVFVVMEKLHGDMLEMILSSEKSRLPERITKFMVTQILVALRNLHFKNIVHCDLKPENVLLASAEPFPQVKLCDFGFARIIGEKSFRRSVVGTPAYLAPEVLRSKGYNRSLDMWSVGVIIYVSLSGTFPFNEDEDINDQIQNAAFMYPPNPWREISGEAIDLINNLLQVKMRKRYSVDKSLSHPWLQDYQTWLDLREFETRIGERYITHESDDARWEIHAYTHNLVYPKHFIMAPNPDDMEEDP
As to conditions: at 10 µM.

Test [3] concerns the target Platelet-derived growth factor receptor beta (Homo sapiens, UniProt P09619). The test is described as follows: Selectivity interaction (KinomeScan (DiscoverX)) EUB0001079a PDGFRB. The conditions noted are these: at 1 µM.
Test [4] concerns the target Insulin receptor-related protein (Homo sapiens) (UniProt P14616). The test can be described thus: Selectivity interaction (KinomeScan (DiscoverX)) EUB0000092b INSRR. As to conditions: at 10 µM.
For test [5], the target named is Protein arginine N-methyltransferase 6 (Homo sapiens, UniProt Q96LA8). The test can be described thus: Selectivity interaction (Scintillation proximity assays) EUB0000255b PRMT6. On the technique in general: In a scintillation proximity assay essentially only radioactivity close to the scintillant gives light.
Test [6] has as its target T3, Serine/threonine-protein kinase TAO3 (Homo sapiens) (UniProt Q9H2K8).
T3 sequence (whole entry): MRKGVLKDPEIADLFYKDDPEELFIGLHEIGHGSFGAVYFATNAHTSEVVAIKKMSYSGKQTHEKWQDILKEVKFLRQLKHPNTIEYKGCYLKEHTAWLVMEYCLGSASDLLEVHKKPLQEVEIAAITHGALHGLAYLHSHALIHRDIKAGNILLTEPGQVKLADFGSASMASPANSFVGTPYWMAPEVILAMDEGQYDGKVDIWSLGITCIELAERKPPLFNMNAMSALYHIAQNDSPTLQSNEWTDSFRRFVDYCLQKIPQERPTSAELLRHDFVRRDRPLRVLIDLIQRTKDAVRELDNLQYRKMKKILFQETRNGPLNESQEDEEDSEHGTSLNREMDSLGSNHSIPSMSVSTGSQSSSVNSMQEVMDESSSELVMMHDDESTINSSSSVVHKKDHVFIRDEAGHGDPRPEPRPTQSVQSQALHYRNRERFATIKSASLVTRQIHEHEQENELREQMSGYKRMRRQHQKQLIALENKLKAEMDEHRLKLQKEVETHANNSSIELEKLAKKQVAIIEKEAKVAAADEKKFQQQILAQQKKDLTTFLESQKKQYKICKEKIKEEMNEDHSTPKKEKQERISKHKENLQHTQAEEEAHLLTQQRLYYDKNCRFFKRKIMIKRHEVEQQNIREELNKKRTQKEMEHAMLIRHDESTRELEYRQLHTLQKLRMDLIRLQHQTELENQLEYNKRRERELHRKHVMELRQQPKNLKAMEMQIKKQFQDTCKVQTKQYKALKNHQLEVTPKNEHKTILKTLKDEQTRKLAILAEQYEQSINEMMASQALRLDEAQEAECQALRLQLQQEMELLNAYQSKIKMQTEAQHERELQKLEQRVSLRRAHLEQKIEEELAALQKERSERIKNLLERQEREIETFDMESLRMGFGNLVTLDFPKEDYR
The test can be described thus: Selectivity interaction (KinomeScan (DiscoverX)) EUB0000655a TAOK3. As to conditions: at 10 µM.

Test [7] addresses Serine/threonine-protein kinase WNK2 (Homo sapiens) (UniProt Q9Y3S1). The test can be described thus: Selectivity interaction (ActivX KiNativ screen (kinase selectivity in THP-1 cell lysates)) EUB0000639a WNK2. In kind it is subcellular. The conditions noted are these: lysate, at 1 µM.

Sequence of Serine/threonine-protein kinase WNK2 (Homo sapiens) (Q9Y3S1 whole entry): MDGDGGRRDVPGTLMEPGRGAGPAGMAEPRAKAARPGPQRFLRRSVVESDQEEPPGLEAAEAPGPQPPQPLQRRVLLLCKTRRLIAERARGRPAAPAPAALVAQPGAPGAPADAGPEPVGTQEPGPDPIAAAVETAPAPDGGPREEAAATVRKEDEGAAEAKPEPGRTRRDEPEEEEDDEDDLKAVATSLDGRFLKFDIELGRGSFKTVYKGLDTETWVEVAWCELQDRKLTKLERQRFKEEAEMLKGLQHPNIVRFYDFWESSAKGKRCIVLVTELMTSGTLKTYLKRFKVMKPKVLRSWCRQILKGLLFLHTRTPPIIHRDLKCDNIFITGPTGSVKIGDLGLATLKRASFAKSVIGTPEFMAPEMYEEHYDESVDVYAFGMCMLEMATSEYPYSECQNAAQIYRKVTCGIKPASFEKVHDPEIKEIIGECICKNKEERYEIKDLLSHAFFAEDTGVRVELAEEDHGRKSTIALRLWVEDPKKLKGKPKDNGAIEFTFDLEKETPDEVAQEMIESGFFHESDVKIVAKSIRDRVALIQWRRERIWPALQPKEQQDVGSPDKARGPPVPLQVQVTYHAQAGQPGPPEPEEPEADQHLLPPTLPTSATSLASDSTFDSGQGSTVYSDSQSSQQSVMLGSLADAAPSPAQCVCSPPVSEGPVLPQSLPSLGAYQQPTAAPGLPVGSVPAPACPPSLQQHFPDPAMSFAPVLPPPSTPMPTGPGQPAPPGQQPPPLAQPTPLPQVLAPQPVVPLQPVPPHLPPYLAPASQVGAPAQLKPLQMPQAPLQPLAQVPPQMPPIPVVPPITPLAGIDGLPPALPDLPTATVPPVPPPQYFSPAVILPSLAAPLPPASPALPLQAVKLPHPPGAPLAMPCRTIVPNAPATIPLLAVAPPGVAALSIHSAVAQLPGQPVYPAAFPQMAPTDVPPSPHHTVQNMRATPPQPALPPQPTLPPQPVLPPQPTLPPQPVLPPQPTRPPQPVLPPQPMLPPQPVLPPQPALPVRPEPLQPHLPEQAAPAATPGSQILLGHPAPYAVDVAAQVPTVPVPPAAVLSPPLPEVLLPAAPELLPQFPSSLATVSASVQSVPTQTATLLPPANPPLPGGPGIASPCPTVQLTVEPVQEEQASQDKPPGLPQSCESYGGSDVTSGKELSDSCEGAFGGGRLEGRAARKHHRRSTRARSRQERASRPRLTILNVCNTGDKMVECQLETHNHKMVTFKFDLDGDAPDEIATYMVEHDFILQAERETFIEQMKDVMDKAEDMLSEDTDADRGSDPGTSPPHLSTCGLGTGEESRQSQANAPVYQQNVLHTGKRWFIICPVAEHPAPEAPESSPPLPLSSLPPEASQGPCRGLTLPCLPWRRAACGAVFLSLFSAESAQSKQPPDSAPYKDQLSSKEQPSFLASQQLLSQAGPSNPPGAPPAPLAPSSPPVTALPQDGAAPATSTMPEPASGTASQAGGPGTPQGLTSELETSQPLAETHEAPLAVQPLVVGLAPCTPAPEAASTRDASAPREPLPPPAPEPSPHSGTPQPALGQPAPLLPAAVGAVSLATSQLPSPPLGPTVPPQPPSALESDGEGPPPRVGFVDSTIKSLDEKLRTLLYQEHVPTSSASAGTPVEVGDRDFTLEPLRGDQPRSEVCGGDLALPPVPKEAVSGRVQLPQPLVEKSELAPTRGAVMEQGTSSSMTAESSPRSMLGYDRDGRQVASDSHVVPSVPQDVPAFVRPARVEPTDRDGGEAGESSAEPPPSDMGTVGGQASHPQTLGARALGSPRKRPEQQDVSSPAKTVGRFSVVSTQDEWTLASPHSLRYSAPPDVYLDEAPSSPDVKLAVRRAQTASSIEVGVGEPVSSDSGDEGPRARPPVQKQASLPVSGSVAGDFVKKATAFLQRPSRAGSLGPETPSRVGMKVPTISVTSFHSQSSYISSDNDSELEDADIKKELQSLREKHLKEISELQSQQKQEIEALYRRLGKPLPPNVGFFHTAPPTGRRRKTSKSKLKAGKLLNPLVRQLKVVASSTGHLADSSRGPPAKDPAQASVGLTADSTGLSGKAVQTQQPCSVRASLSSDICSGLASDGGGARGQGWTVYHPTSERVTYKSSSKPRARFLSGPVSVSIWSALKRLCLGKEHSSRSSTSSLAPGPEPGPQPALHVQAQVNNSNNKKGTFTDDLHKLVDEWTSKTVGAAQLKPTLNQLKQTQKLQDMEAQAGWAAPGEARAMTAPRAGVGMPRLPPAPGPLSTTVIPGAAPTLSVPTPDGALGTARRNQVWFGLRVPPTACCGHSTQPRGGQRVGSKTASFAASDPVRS
Sequence of Protein arginine N-methyltransferase 6 (Q96LA8 whole entry): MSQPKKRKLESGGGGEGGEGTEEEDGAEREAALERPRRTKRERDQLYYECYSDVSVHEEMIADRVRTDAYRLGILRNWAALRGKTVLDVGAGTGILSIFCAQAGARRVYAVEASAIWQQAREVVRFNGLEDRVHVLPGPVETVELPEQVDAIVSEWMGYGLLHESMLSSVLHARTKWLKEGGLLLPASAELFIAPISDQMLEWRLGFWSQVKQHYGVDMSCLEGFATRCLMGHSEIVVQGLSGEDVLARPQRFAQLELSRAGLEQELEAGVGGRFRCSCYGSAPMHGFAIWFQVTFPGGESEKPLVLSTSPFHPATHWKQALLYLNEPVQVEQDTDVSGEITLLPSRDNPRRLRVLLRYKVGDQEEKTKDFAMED
Sequence of Insulin receptor-related protein (Homo sapiens) (P14616 27-742 limits assumed): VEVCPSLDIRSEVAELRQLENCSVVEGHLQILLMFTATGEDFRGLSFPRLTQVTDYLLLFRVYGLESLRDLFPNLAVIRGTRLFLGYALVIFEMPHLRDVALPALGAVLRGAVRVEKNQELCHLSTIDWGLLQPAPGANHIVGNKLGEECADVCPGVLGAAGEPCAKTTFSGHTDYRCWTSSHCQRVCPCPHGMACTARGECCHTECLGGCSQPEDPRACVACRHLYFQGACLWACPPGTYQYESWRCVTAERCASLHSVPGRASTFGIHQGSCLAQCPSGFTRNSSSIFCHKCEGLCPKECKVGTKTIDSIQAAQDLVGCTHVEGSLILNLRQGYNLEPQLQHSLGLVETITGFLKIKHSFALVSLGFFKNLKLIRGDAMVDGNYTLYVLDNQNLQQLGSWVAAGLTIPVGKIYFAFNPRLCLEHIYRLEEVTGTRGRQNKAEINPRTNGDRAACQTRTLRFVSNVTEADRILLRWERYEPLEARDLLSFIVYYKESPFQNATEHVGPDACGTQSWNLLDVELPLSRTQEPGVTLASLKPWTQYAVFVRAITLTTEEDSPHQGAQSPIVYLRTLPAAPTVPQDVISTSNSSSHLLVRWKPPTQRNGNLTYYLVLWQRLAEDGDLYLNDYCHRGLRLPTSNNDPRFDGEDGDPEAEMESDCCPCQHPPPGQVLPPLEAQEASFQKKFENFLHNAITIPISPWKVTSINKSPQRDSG
Sequence of Insulin receptor-related protein (Homo sapiens) (P14616 747-1297 limits assumed): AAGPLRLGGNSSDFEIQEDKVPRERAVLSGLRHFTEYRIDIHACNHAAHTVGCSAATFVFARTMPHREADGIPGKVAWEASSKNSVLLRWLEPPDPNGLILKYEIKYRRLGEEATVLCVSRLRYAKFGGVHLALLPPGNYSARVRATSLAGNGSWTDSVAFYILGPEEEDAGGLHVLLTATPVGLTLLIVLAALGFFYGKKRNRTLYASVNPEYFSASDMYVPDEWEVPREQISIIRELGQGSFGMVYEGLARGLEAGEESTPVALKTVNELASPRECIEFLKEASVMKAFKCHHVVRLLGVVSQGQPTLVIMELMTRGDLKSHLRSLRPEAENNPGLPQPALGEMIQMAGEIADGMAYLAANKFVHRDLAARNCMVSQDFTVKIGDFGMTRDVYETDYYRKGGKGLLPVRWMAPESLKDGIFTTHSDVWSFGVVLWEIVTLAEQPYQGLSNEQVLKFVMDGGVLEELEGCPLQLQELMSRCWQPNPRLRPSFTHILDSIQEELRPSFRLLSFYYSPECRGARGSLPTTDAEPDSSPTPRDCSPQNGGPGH
Sequence of Platelet-derived growth factor receptor beta (P09619 whole entry): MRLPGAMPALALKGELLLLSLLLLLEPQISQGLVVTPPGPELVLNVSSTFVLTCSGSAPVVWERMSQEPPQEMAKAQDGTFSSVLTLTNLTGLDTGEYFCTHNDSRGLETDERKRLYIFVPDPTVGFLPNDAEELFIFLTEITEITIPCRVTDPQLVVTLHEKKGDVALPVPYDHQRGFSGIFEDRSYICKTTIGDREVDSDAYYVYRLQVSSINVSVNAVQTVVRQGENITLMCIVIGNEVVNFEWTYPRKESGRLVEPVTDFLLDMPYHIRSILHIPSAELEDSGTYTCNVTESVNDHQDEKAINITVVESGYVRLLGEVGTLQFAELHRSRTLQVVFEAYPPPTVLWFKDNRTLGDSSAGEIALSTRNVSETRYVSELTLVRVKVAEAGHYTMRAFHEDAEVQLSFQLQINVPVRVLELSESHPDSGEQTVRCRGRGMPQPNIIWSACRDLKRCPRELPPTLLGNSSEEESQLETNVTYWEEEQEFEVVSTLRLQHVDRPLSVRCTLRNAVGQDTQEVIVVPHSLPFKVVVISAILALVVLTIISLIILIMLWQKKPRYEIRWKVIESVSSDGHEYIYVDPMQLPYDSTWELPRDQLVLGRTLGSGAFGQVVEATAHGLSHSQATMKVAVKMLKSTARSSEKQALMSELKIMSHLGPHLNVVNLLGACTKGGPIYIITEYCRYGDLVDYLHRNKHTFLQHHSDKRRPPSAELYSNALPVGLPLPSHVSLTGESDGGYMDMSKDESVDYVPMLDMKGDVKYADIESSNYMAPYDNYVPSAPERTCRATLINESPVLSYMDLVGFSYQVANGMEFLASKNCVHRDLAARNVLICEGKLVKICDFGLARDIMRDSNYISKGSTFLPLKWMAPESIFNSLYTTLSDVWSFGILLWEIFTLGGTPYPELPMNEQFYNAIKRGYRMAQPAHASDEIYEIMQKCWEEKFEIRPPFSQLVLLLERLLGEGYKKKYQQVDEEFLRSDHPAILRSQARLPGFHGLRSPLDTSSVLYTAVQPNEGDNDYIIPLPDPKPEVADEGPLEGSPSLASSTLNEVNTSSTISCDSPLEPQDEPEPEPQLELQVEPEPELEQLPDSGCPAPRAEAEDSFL

As for `C=CC(=O)Nc1cccc(C(=O)Nc2ccc(Nc3cc(-c4[nH]c(SC)nc4C)ccn3)cc2)c1`, the results for the % of control in test [1] (at 1 µM) and in test [1] (at 5 µM) were 92% and 78%, respectively. On to `Cc1cc([C@@H](C)Nc2ccccc2C(=O)O)c2nc(N3CCOCC3)cc(=O)n2c1` [AZD-6482], for which the % of control in test [2] is 100%.

`Nc1cnc(N2CCc3cc(S(=O)(=O)Nc4c(F)cc(Cl)cc4F)cc(N4CCCC4=O)c32)nc1` [TP-020n] gave a % of control in test [3] of 100%. The compound `CCC(=O)N1CCN(c2ccc(-n3c(=O)ccc4cnc5ccc(-c6cnc7ccccc7c6)cc5c43)cc2C(F)(F)F)CC1` had a % of control in test [4] of 100%. Consider `COCCN1CCC(c2cc(CN(C)C(=O)c3cccc(Oc4ccccc4)c3)ccn2)CC1`, for which, in test [5], the IC50 (as a rule, the concentration that inhibits the measured activity by half) was above 10 µM. `CN(C)CCOc1ccc(-c2nc(-c3ccncc3)c(-c3ccc4c(c3)CC/C4=N\O)[nH]2)cc1` displayed a % of control in test [6] of 75%. With `CC[C@@H]1[C@H](F)C(=O)N[C@@H]1COc1nccc2cc(C(N)=O)c(OC)cc12` [ZIMLOVISERTIB], the % of inhibition in test [7] was -7.7%.
